# Literature values in patent US20220259114A1, “Microbe-Based Compositions for Restoring Soil Health and Controlling Pests” (Locus Agriculture IP Company, LLC, priority 2019, published 2022).
# *1 amine or outer side, *2 acyl side, *3 side chain or, on linkers, in order; H or OH if unused. Where a SMILES comes first, the peptide text is derived from it. Bridges are numbered along the chain shown (N, C = ends). [ ]: non-standard residue; d: D form. X1 = CC(C)CCCCCCCCC[C@H](CC(=O)[*:1])O[*:2]
# Columns and labels:
# [1] = reduced from 72 mN/m; concentration as low as 0.005%
# [2] = stated 'in one embodiment'; species and route not given
# [3] = test system: plant pathogens including bacteria, fungi, viruses and nematodes; conditions: in most cases does not exceed
compound,measurement,setting,value
"CC(C)CCCCCCCCC[C@@H]1CC(=O)N[C@@H](CCC(=O)O)C(=O)N[C@@H](CC(C)C)C(=O)N[C@H](CC(C)C)C(=O)N[C@@H](C(C)C)C(=O)N[C@@H](CC(=O)O)C(=O)N[C@H](CC(C)C)C(=O)N[C@@H](CC(C)C)C(=O)O1 [Surfactin, surfactin] (EL[dL]VD[dL]L; linker N-C via X1)",surface tension of water after reduction,[1],27 mN/m
sophorolipid [SLP],toxic dose,[2],> 375 mg/kg of body weight
same,"effective SLP concentration for biopesticide activity, in most cases",[3],≤ 3 mg/L
